Results taken from PubChem BioAssay (NCI).
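96-well plates; 48 h exposure; 5 concentrations. Endpoints by linear interpolation between flanking doses. Not reached: highest tested concentration assigned. TGI denotes the concentration required for complete inhibition of growth.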

Key:
Experiment in all cases: NCI-60 cell line screen, 48 h
786-0 renal = tested on: 786-0 renal
A498 renal = tested on: A498 renal
A549 NSCLC = tested on: A549 NSCLC
ACHN renal = tested on: ACHN renal
BT-549 breast = tested on: BT-549 breast
CAKI-1 renal = tested on: CAKI-1 renal
CCRF-CEM leukemia = tested on: CCRF-CEM leukemia
COLO 205 colon = tested on: COLO 205 colon
DLD-1 colon = tested on: DLD-1 colon
DMS 114 small cell lung = tested on: DMS 114 small cell lung
DMS 273 small cell lung = tested on: DMS 273 small cell lung
DU-145 prostate = tested on: DU-145 prostate
EKVX NSCLC = tested on: EKVX NSCLC
HCC-2998 colon = tested on: HCC-2998 colon
HCT-116 colon = tested on: HCT-116 colon
HCT-15 colon = tested on: HCT-15 colon
HL-60(TB) leukemia = tested on: HL-60(TB) leukemia
HOP-62 NSCLC = tested on: HOP-62 NSCLC
HOP-92 NSCLC = tested on: HOP-92 NSCLC
HS 578T breast = tested on: HS 578T breast
HT29 colon = tested on: HT29 colon
IGROV1 ovarian = tested on: IGROV1 ovarian
K-562 leukemia = tested on: K-562 leukemia
KM12 colon = tested on: KM12 colon
KM20L2 colon = tested on: KM20L2 colon
LOX IMVI melanoma = tested on: LOX IMVI melanoma
LXFL 529 NSCLC = tested on: LXFL 529 NSCLC
M14 melanoma = tested on: M14 melanoma
M19-MEL melanoma = tested on: M19-MEL melanoma
MALME-3M melanoma = tested on: MALME-3M melanoma
MCF7 breast = tested on: MCF7 breast
MDA-MB-231 breast = tested on: MDA-MB-231 breast
MDA-MB-435 = tested on: MDA-MB-435
MDA-N = tested on: MDA-N
MOLT-4 leukemia = tested on: MOLT-4 leukemia
NCI-H226 lung = tested on: NCI-H226 lung
NCI-H23 lung = tested on: NCI-H23 lung
NCI-H460 lung = tested on: NCI-H460 lung
NCI-H522 lung = tested on: NCI-H522 lung
NCI/ADR-RES ovarian = tested on: NCI/ADR-RES ovarian
OVCAR-3 ovarian = tested on: OVCAR-3 ovarian
OVCAR-4 ovarian = tested on: OVCAR-4 ovarian
OVCAR-5 ovarian = tested on: OVCAR-5 ovarian
OVCAR-8 ovarian = tested on: OVCAR-8 ovarian
PC-3 prostate = tested on: PC-3 prostate
RPMI-8226 leukemia = tested on: RPMI-8226 leukemia
RXF 393 renal = tested on: RXF 393 renal
SF-268 CNS = tested on: SF-268 CNS
SF-295 CNS = tested on: SF-295 CNS
SF-539 CNS = tested on: SF-539 CNS
SK-MEL-2 melanoma = tested on: SK-MEL-2 melanoma
SK-MEL-28 melanoma = tested on: SK-MEL-28 melanoma
SK-MEL-5 melanoma = tested on: SK-MEL-5 melanoma
SK-OV-3 ovarian = tested on: SK-OV-3 ovarian
SN12C renal = tested on: SN12C renal
SNB-19 CNS = tested on: SNB-19 CNS
SNB-75 CNS = tested on: SNB-75 CNS
SNB-78 CNS = tested on: SNB-78 CNS
SR leukemia = tested on: SR leukemia
SW-620 colon = tested on: SW-620 colon
T-47D breast = tested on: T-47D breast
TK-10 renal = tested on: TK-10 renal
U251 CNS = tested on: U251 CNS
UACC-257 melanoma = tested on: UACC-257 melanoma
UACC-62 melanoma = tested on: UACC-62 melanoma
UO-31 renal = tested on: UO-31 renal
XF 498 CNS = tested on: XF 498 CNS

`C[C@]12C=CC(=O)C=C1[C@@H](F)C[C@H]1[C@@H]3CC[C@](O)(C(=O)CO)[C@@]3(C)C[C@H](O)[C@@]12F` gave a TGI (786-0 renal) greater than 100 µM, a TGI (A498 renal) greater than 100 µM and a TGI (A549 NSCLC) greater than 100 µM. For the same molecule, the TGI (ACHN renal) was greater than 100 µM, the TGI (BT-549 breast) was greater than 100 µM and the TGI (CAKI-1 renal) was greater than 100 µM. The TGI (CCRF-CEM leukemia) was greater than 100 µM, the TGI (COLO 205 colon) was greater than 100 µM and the TGI (DLD-1 colon) was greater than 100 µM. For the same molecule, the TGI (DMS 114 small cell lung) was greater than 100 µM, the TGI (DMS 273 small cell lung) was greater than 100 µM and the TGI (DU-145 prostate) was greater than 100 µM. It also gave a TGI (EKVX NSCLC) greater than 100 µM, a TGI (HCC-2998 colon) greater than 100 µM and a TGI (HCT-116 colon) greater than 100 µM. The TGI (HCT-15 colon) was greater than 100 µM, the TGI (HL-60(TB) leukemia) was greater than 100 µM and the TGI (HOP-62 NSCLC) was greater than 100 µM. It also gave a TGI (HOP-92 NSCLC) greater than 100 µM, a TGI (HS 578T breast) greater than 100 µM and a TGI (HT29 colon) greater than 100 µM. The TGI (IGROV1 ovarian) was greater than 100 µM, the TGI (K-562 leukemia) was greater than 100 µM and the TGI (KM12 colon) was greater than 100 µM. For the same molecule, the TGI (KM20L2 colon) was greater than 100 µM, the TGI (LOX IMVI melanoma) was greater than 100 µM and the TGI (LXFL 529 NSCLC) was greater than 100 µM. For the same molecule, the TGI (M14 melanoma) was greater than 100 µM, the TGI (M19-MEL melanoma) was greater than 100 µM and the TGI (MALME-3M melanoma) was greater than 100 µM. The TGI (MCF7 breast) was greater than 100 µM, the TGI (MDA-MB-231 breast) was greater than 100 µM and the TGI (MDA-MB-435) was greater than 100 µM. It also gave a TGI (MDA-N) greater than 100 µM, a TGI (MOLT-4 leukemia) greater than 100 µM and a TGI (NCI-H226 lung) greater than 100 µM. The TGI (NCI-H23 lung) was greater than 100 µM, the TGI (NCI-H460 lung) was greater than 100 µM and the TGI (NCI-H522 lung) was greater than 100 µM. It also gave a TGI (NCI/ADR-RES ovarian) greater than 100 µM, a TGI (OVCAR-3 ovarian) greater than 100 µM and a TGI (OVCAR-4 ovarian) greater than 100 µM. It also gave a TGI (OVCAR-5 ovarian) greater than 100 µM, a TGI (OVCAR-8 ovarian) greater than 100 µM and a TGI (PC-3 prostate) greater than 100 µM. For the same molecule, the TGI (RPMI-8226 leukemia) was greater than 100 µM, the TGI (RXF 393 renal) was greater than 100 µM and the TGI (SF-268 CNS) was greater than 100 µM. The TGI (SF-295 CNS) was greater than 100 µM, the TGI (SF-539 CNS) was greater than 100 µM and the TGI (SK-MEL-2 melanoma) was greater than 100 µM. For the same molecule, the TGI (SK-MEL-28 melanoma) was greater than 100 µM, the TGI (SK-MEL-5 melanoma) was greater than 100 µM and the TGI (SK-OV-3 ovarian) was greater than 100 µM. It also gave a TGI (SN12C renal) greater than 100 µM, a TGI (SNB-19 CNS) greater than 100 µM and a TGI (SNB-75 CNS) greater than 100 µM. For the same molecule, the TGI (SNB-78 CNS) was greater than 100 µM, the TGI (SR leukemia) was greater than 100 µM and the TGI (SW-620 colon) was greater than 100 µM. The TGI (T-47D breast) was greater than 100 µM, the TGI (TK-10 renal) was greater than 100 µM and the TGI (U251 CNS) was greater than 100 µM. It also gave a TGI (UACC-257 melanoma) greater than 100 µM, a TGI (UACC-62 melanoma) greater than 100 µM and a TGI (UO-31 renal) greater than 100 µM. The TGI (XF 498 CNS) was greater than 100 µM.
`COc1ccc2nc(C)cc(NCCCCCCCCCNc3cc(C)nc4ccc(OC)cc34)c2c1` showed a TGI (786-0 renal) of 2.31 µM, a TGI (A498 renal) of 43.4 µM and a TGI (A549 NSCLC) of 8.3 µM. The TGI (ACHN renal) was 21.2 µM, the TGI (BT-549 breast) was 21.1 µM and the TGI (CAKI-1 renal) was 18.3 µM. For the same molecule, the TGI (CCRF-CEM leukemia) was 11.2 µM, the TGI (COLO 205 colon) was 7.47 µM and the TGI (DLD-1 colon) was 6.61 µM. It also gave a TGI (DMS 114 small cell lung) of 2.51 µM, a TGI (DMS 273 small cell lung) of 13.4 µM and a TGI (DU-145 prostate) of 19.5 µM. It also gave a TGI (EKVX NSCLC) of 7.36 µM, a TGI (HCC-2998 colon) of 2.73 µM and a TGI (HCT-116 colon) of 1.46 µM. It also gave a TGI (HCT-15 colon) of 5.32 µM, a TGI (HL-60(TB) leukemia) of 5.25 µM and a TGI (HOP-62 NSCLC) of 10.6 µM. The TGI (HOP-92 NSCLC) was 5.21 µM, the TGI (HT29 colon) was 2.05 µM and the TGI (IGROV1 ovarian) was 9.1 µM. For the same molecule, the TGI (K-562 leukemia) was 2.93 µM, the TGI (KM12 colon) was 2.74 µM and the TGI (KM20L2 colon) was 6.36 µM. For the same molecule, the TGI (LOX IMVI melanoma) was 1.99 µM, the TGI (LXFL 529 NSCLC) was 2.4 µM and the TGI (M14 melanoma) was 5.9 µM. The TGI (M19-MEL melanoma) was 31.9 µM, the TGI (MALME-3M melanoma) was 17.7 µM and the TGI (MCF7 breast) was 2.47 µM. For the same molecule, the TGI (MDA-MB-231 breast) was 2.54 µM, the TGI (MDA-MB-435) was 2.95 µM and the TGI (MDA-N) was 2.83 µM. The TGI (MOLT-4 leukemia) was greater than 34.7 µM, the TGI (NCI-H226 lung) was 27.6 µM and the TGI (NCI-H23 lung) was 6.89 µM. For the same molecule, the TGI (NCI-H460 lung) was 1.77 µM, the TGI (NCI-H522 lung) was 2.13 µM and the TGI (NCI/ADR-RES ovarian) was 34.8 µM. For the same molecule, the TGI (OVCAR-3 ovarian) was 2.76 µM, the TGI (OVCAR-4 ovarian) was 9.32 µM and the TGI (OVCAR-5 ovarian) was 15.2 µM. It also gave a TGI (OVCAR-8 ovarian) of 1.42 µM, a TGI (PC-3 prostate) of 5.01 µM and a TGI (RPMI-8226 leukemia) greater than 24.7 µM. It also gave a TGI (RXF 393 renal) of 5.96 µM, a TGI (SF-268 CNS) of 11.3 µM and a TGI (SF-295 CNS) of 2.33 µM. The TGI (SF-539 CNS) was 2.4 µM, the TGI (SK-MEL-2 melanoma) was 10.8 µM and the TGI (SK-MEL-28 melanoma) was 29.9 µM. For the same molecule, the TGI (SK-MEL-5 melanoma) was 3.11 µM, the TGI (SK-OV-3 ovarian) was 25.7 µM and the TGI (SN12C renal) was 11.4 µM. It also gave a TGI (SNB-19 CNS) of 10.2 µM, a TGI (SNB-75 CNS) of 12.5 µM and a TGI (SNB-78 CNS) of 26.4 µM. For the same molecule, the TGI (SR leukemia) was 29.3 µM, the TGI (SW-620 colon) was 2.32 µM and the TGI (T-47D breast) was 3.46 µM. For the same molecule, the TGI (TK-10 renal) was 9.77 µM, the TGI (U251 CNS) was 5.77 µM and the TGI (UACC-257 melanoma) was 21.2 µM. It also gave a TGI (UACC-62 melanoma) of 7.34 µM, a TGI (UO-31 renal) of 28.3 µM and a TGI (XF 498 CNS) of 3.69 µM.
